Legend:
isolated SUR1-/- neurons = assay type: cell-based, mice
[1] = target: growth hormone secretagogue receptor (mouse (endogenous in NPY-GFP neurons)) (UniProt Q99P50)
[2] = system: NPY-GFP neurons in hypothalamic slices; assay type: cell-based, mice

growth hormone secretagogue receptor (mouse (endogenous in NPY-GFP neurons)), sequence (Q99P50 whole entry): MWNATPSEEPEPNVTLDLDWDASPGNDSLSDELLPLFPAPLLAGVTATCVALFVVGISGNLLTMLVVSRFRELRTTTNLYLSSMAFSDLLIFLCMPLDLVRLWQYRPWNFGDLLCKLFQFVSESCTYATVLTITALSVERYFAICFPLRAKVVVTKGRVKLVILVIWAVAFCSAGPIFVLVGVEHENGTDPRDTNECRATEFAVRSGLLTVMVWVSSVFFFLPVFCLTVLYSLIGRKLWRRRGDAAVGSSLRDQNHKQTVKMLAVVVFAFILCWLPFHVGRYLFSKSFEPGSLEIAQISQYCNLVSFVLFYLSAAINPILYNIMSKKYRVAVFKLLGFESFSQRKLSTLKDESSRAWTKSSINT

`COc1ccc(Cl)cc1C(=O)NCCc1ccc(S(=O)(=O)NC(=O)NC2CCCCC2)cc1` [glibenclamide] was tested, and the “effect on ghrelin action” value (isolated SUR1-/- neurons; glibenclamide 1 μM, ghrelin 200 pM, neurons from SUR1-/- mice) was “no significant effect on ghrelin action”.

In the case of Acylated ghrelin (peptide), the EC50 of the rise of [Ca2+]c (fura-2) in isolated NPY-GFP neurons, from averages of the peak heights at each ghrelin concentration [1] is reported as 0.11 nM.

For `CCCCCCCC(=O)OC[C@H](NC(=O)[C@H](CO)NC(=O)CN)C(=O)N[C@@H](Cc1ccccc1)C(=O)N[C@@H](CC(C)C)C(=O)N[C@@H](CO)C(=O)N1CCC[C@H]1C(=O)N[C@@H](CCC(=O)O)C(=O)N[C@@H](Cc1c[nH]cn1)C(=O)N[C@@H](CCC(N)=O)C(=O)N[C@@H](CCCNC(=N)N)C(=O)N[C@H](C(=O)N[C@@H](CCC(N)=O)C(=O)N[C@@H](CCC(N)=O)C(=O)N[C@@H](CCCNC(=N)N)C(=O)N[C@@H](CCCCN)C(=O)N[C@@H](CCC(=O)O)C(=O)N[C@@H](CO)C(=O)N[C@@H](CCCCN)C(=O)N[C@@H](CCCCN)C(=O)N1CCC[C@H]1C(=O)N1CCC[C@H]1C(=O)N[C@@H](C)C(=O)N[C@@H](CCCCN)C(=O)N[C@@H](CC(C)C)C(=O)N[C@@H](CCC(N)=O)C(=O)N1CCC[C@H]1C(=O)N[C@@H](CCCNC(=N)N)C(=O)O)C(C)C` [ghrelin], the “average IR decrease” value [2] was -108 ± 60 MΩ, the “ghrelin-induced changes in MP and IR in the presence of TTX” value [2] was “persistent, albeit diminished” and the “neurons depolarized due to decreases in IR” value [2] was ~ 70%. The “neurons depolarized with increases in IR” value [2] was 7/22, the “average ΔMP (MP +ghrelin minus MP w/o ghrelin)” value ([2]; SD) was 3.6 ± 1.7 mV and the “effect on [Ca2+]c” value (isolated SUR1-/- neurons) was “reversibly stimulated an increase in [Ca^2+]c in a subset of isolated SUR1^-/- neurons”.

For `NC1=N[C@H](O)[C@H]2[C@H]3O[C@]4(O)O[C@@H]([C@@H](O)[C@@]2(N1)[C@@H]4O)[C@]3(O)CO` [TTX, tetrodotoxin], the “effect on ghrelin-induced changes in MP and IR” value [2] was “reduces these ghrelin-induced changes in both MP and IR”.

`CC1=NS(=O)(=O)c2cc(Cl)ccc2N1` [diazoxide] was tested, and the “stimulation of an increase in [Ca2+]c” value (isolated SUR1-/- neurons; diazoxide 200 μM, neurons from SUR1-/- mice) was “not”.

Source: PMC5587286, “Direct versus indirect actions of ghrelin on hypothalamic NPY neurons” (PLoS ONE, 2017)
